Experiments:
Assay type in all cases: biochemical
[1] = biological target: T1, JAK1 (Homo sapiens, UniProt P23458); assay: Z'-LYTE kinase assay, JAK1 tyrosine phosphorylation activity; conditions: read-out: JAK 1 IC50
T1 construct: 5 μl of catalytic domain recombinant Kinase enzyme+Tyr peptide substrate (Invitrogen, Calif.); purchased Invitrogen
In short: (§1)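 Compounds are serially diluted 1:10 in DMSO and tested in duplicate at 1% final DMSO. Each recombinant catalytic domain phosphorylates the Tyr6 FRET peptide with ATP for 1 h at room temperature, then a site-specific protease cleaves unphosphorylated peptide over 1 h before coumarin/fluorescein emission is read.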

[2] = biological target: T2, JAK2 (Homo sapiens, UniProt O60674); assay: Z'-LYTE kinase assay, JAK2 tyrosine phosphorylation activity
T2 construct: 5 μl of catalytic domain recombinant Kinase enzyme+Tyr peptide substrate (Invitrogen, Calif.); purchased Invitrogen
In short: as §1

[3] = biological target: T3, JAK3 (Homo sapiens, UniProt P52333); assay: Z'-LYTE kinase assay, JAK3 tyrosine phosphorylation activity
T3 construct: 5 μl of catalytic domain recombinant Kinase enzyme+Tyr peptide substrate (Invitrogen, Calif.); purchased Invitrogen
In short: as §1

[4] = biological target: T4, TYK2 (Homo sapiens, UniProt P29597); assay: Z'-LYTE kinase assay, TYK2 tyrosine phosphorylation activity
T4 construct: 5 μl of catalytic domain recombinant Kinase enzyme+Tyr peptide substrate (Invitrogen, Calif.); purchased Invitrogen
T4 sequence (P29597 897-1176 limits assumed): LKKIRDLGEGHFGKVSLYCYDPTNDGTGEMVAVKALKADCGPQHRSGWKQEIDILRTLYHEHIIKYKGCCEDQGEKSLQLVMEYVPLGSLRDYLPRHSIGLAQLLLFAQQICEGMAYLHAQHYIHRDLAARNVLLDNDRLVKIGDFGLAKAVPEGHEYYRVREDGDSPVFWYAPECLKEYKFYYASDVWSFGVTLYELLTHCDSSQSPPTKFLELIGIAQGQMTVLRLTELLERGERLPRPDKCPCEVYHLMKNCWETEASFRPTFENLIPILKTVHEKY
In short: as §1

[5] = biological target: Syk (Homo sapiens, UniProt P43405); assay: Syk IC50 (Table 1; method not given)

T3 sequence (P52333 822-1111 limits assumed): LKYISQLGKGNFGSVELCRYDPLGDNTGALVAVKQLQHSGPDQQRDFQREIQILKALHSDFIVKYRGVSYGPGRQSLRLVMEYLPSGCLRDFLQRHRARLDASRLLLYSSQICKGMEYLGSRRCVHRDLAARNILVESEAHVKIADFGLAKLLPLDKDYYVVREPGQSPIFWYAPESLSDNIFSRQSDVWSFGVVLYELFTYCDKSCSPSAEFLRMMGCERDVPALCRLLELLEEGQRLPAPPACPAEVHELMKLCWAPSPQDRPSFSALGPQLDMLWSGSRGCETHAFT
T1 sequence (P23458 875-1153 limits assumed): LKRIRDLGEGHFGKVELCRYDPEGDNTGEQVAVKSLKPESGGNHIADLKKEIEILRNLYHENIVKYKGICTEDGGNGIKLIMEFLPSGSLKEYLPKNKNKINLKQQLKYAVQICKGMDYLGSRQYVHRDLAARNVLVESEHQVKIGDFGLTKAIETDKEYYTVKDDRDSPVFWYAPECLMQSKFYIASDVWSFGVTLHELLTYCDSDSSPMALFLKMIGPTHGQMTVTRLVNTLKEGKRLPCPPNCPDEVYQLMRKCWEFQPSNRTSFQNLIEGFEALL
T2 sequence (O60674 849-1124 limits assumed): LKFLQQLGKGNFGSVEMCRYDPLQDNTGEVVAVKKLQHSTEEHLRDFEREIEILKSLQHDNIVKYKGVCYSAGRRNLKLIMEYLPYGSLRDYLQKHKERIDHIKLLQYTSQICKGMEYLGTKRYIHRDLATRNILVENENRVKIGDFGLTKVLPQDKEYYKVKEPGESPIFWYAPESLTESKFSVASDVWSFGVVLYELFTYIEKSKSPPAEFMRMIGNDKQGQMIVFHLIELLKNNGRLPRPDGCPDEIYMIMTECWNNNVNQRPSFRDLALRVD

| IC50 [1] [nM] | IC50 [2] [nM] | IC50 [3] [nM] | IC50 [4] [nM] | IC50 [5] [nM] | SMILES |
| --- | --- | --- | --- | --- | --- |
| 10 to 100 | 10 to 100 | 10 to 100 | 10 to 100 | > 1000 | COCC(=O)N(C)c1cccc(Nc2ncc(C(N)=O)c(NC(C)C)n2)c1 [Example 88, 4-(isopropylamino)-2-(3-(2-methoxy-N-methylacetamido)phenylamino)pyrimidine-5-carboxamide] |
| 10 to 100 | 10 to 100 | 10 to 100 | 10 to 100 | 100 to 1000 | COCC(=O)Nc1cccc(Nc2ncc(C(N)=O)c(NCC(F)(F)F)n2)c1 [Example 6, 2-(3-(2-methoxyacetamido)phenylamino)-4-(2,2,2-trifluoroethylamino)pyrimidine-5-carboxamide] |
| 10 to 100 | 1 to 10 | 1 to 10 | 10 to 100 | > 1000 | COCC(=O)N(C)c1cccc(Nc2ncc(C(N)=O)c(NC3CCCC3)n2)c1 [Example 89, 4-(cyclopentylamino)-2-(3-(2-methoxy-N-methylacetamido)phenylamino)pyrimidine-5-carboxamide] |
| 100 to 1000 | 100 to 1000 | 10 to 100 | 10 to 100 | > 1000 | CC(=O)Nc1cccc(Nc2ncc(C(N)=O)c(NC[C@@H](O)CO)n2)c1 [Example 83, (R)-2-(3-acetamidophenylamino)-4-(2,3-dihydroxypropylamino)pyrimidine-5-carboxamide] |
| 100 to 1000 | 1 to 10 | 1 to 10 | 10 to 100 | > 1000 | COCC(=O)N(C)c1cccc(Nc2ncc(C(N)=O)c(N[C@H](C)c3ccccc3)n2)c1 [Example 86, (R)-2-(3-(2-methoxy-N-methylacetamido)phenylamino)-4-(1-phenylethylamino)pyrimidine-5-carboxamide] |
| 10 to 100 | 10 to 100 | 1 to 10 | 10 to 100 | > 1000 | CC(=O)N(C)c1cccc(Nc2ncc(C(N)=O)c(NCc3ccccc3)n2)c1 [Example 79, 4-(benzylamino)-2-(3-(N-methylacetamido)phenylamino)pyrimidine-5-carboxamide] |
| 100 to 1000 | 100 to 1000 | 10 to 100 | 10 to 100 | > 1000 | CC(=O)Nc1cccc(Nc2ncc(C(N)=O)c(NCCN3CCOCC3)n2)c1 [Example 80, 2-(3-acetamidophenylamino)-4-(2-morpholinoethylamino)pyrimidine-5-carboxamide] |
| 100 to 1000 | 100 to 1000 | 10 to 100 | 10 to 100 | > 1000 | CC(=O)Nc1cccc(Nc2ncc(C(N)=O)c(N[C@@H](C)C(N)=O)n2)c1 [Example 85, (S)-2-(3-acetamidophenylamino)-4-(1-amino-1-oxopropan-2-ylamino)pyrimidine-5-carboxamide] |
| 10 to 100 | 10 to 100 | 1 to 10 | 10 to 100 | > 1000 | COCC(=O)N(C)c1cccc(Nc2ncc(C(N)=O)c(NCc3ccccc3)n2)c1 [Example 90, 4-(benzylamino)-2-(3-(2-methoxy-N-methylacetamido)phenylamino)pyrimidine-5-carboxamide] |
| > 1000 | 100 to 1000 | 10 to 100 | 10 to 100 | > 1000 | CC(=O)Nc1cccc(Nc2ncc(C(N)=O)c(NCC(=O)N3CCCC3)n2)c1 [Example 65, 2-(3-acetamidophenylamino)-4-(2-oxo-2-(pyrrolidin-1-yl)ethylamino)pyrimidine-5-carboxamide] |
| 10 to 100 | 10 to 100 | 1 to 10 | 1 to 10 | 100 to 1000 | CC(=O)Nc1cccc(Nc2ncc(C(N)=O)c(NCC(F)(F)F)n2)c1 [Example 7, 2-(3-acetamidophenylamino)-4-(2,2,2-trifluoroethylamino)pyrimidine-5-carboxamide] |
| 100 to 1000 | 10 to 100 | 10 to 100 | 10 to 100 | > 1000 | CC(=O)Nc1cccc(Nc2ncc(C(N)=O)c(NC[C@H](C)c3ccccc3)n2)c1 [Example 81, (R)-2-(3-acetamidophenylamino)-4-(2-phenylpropylamino)pyrimidine-5-carboxamide] |
| 100 to 1000 | 100 to 1000 | 10 to 100 | 10 to 100 | 100 to 1000 | NC(=O)c1cnc(Nc2cccc(NC(=O)C3CC3)c2)nc1NCC(F)(F)F [Example 5, 2-(3-(cyclopropanecarboxamido)phenylamino)-4-(2,2,2-trifluoroethylamino)pyrimidine-5-carboxamide] |
| 100 to 1000 | 10 to 100 | 10 to 100 | 10 to 100 | > 1000 | CC(=O)Nc1cccc(Nc2ncc(C(N)=O)c(N[C@H](CO)Cc3ccccc3)n2)c1 [Example 76, (S)-2-(3-acetamidophenylamino)-4-(1-hydroxy-3-phenylpropan-2-ylamino)pyrimidine-5-carboxamide] |
| 10 to 100 | 10 to 100 | 1 to 10 | – | 100 to 1000 | CC(=O)Nc1cccc(Nc2ncc(C(N)=O)c(NC3CCCC3)n2)c1 [Example 15, 2-(3-acetamidophenylamino)-4-(cyclopentylamino)pyrimidine-5-carboxamide] |
| > 1000 | 100 to 1000 | 10 to 100 | – | > 1000 | COC(=O)Nc1cc(Nc2ncc(C(N)=O)c(NCC(F)(F)F)n2)ccc1Cl [Example 18, methyl 5-(5-carbamoyl-4-(2,2,2-trifluoroethylamino)pyrimidin-2-ylamino)-2-chlorophenylcarbamate] |
| 100 to 1000 | 10 to 100 | 1 to 10 | – | 100 to 1000 | CC(=O)Nc1cccc(Nc2ncc(C(N)=O)c(NC[C@H](O)c3ccccc3)n2)c1 [Example 49, (R)-2-(3-acetamidophenylamino)-4-(2-hydroxy-2-phenylethylamino)pyrimidine-5-carboxamide] |
| 10 to 100 | 100 to 1000 | 10 to 100 | – | 100 to 1000 | COC(=O)Nc1cc(Nc2ncc(C(N)=O)c(NC3CCCC3)n2)ccc1Cl [Example 25, methyl 5-(5-carbamoyl-4-(cyclopentylamino)pyrimidin-2-ylamino)-2-chlorophenylcarbamate] |
| 100 to 1000 | 10 to 100 | 10 to 100 | – | 100 to 1000 | CC(=O)Nc1cccc(Nc2ncc(C(N)=O)c(NCCc3ccccc3)n2)c1 [Example 56, 2-(3-acetamidophenylamino)-4-(phenethylamino)pyrimidine-5-carboxamide] |
| 10 to 100 | 10 to 100 | 1 to 10 | – | 100 to 1000 | CC(=O)Nc1cccc(Nc2ncc(C(N)=O)c(NC3CCC3)n2)c1 [Example 1, 2-(3-acetamidophenylamino)-4-(cyclobutylamino)pyrimidine-5-carboxamide] |
| > 1000 | 100 to 1000 | 100 to 1000 | – | > 1000 | CC(=O)Nc1cccc(Nc2ncc(C(N)=O)c(NCc3ccc(Cl)c(Cl)c3)n2)c1 [Example 70, 2-(3-acetamidophenylamino)-4-(3,4-dichlorobenzylamino)pyrimidine-5-carboxamide] |
| 100 to 1000 | 100 to 1000 | 10 to 100 | – | > 1000 | COc1ccc(CNc2nc(Nc3cccc(NC(C)=O)c3)ncc2C(N)=O)cc1 [Example 68, 2-(3-acetamidophenylamino)-4-(4-methoxybenzylamino)pyrimidine-5-carboxamide] |
| 100 to 1000 | 10 to 100 | < 1 | – | > 1000 | CN(C)[C@@H]1CCN(C(=O)Nc2cccc(Nc3cc(NCc4cccc(F)c4)c(C(N)=O)cn3)c2)C1 [Example 306, (R)-6-(3-(3-(dimethylamino)pyrrolidine-1-carboxamido)phenylamino)-4-(3-fluorobenzylamino)nicotinamide] |
| 10 to 100 | 10 to 100 | 1 to 10 | – | 100 to 1000 | CCC(=O)Nc1cccc(Nc2ncc(C(N)=O)c(NC3CCCC3)n2)c1 [Example 21, 4-(cyclopentylamino)-2-(3-propionamidophenylamino)pyrimidine-5-carboxamide] |
| > 1000 | 100 to 1000 | 100 to 1000 | – | > 1000 | CC(=O)Nc1cccc(Nc2ncc(C(N)=O)c(N(C)Cc3ccccc3)n2)c1 [Example 54, 2-(3-acetamidophenylamino)-4-(benzyl(methyl)amino)pyrimidine-5-carboxamide] |
| 10 to 100 | 10 to 100 | 1 to 10 | – | 100 to 1000 | CCNC(=O)Nc1cccc(Nc2ncc(C(N)=O)c(NC3CCCC3)n2)c1 [Example 36, 4-(cyclopentylamino)-2-(3-(3-ethylureido)phenylamino)pyrimidine-5-carboxamide] |
| 100 to 1000 | 10 to 100 | 10 to 100 | – | 100 to 1000 | CC(=O)Nc1cccc(Nc2ncc(C(N)=O)c(NC3CC3c3ccccc3)n2)c1 (centres unmarked) [Example 51, 2-(3-acetamidophenylamino)-4-(2-phenylcyclopropylamino)pyrimidine-5-carboxamide] |

Reference: patent US8853230B2, “Inhibitors of JAK” (Portola Pharmaceuticals, Inc., priority 2009, dated 2014)
